# According to the supplement of paper PMC10307832:
# Legend:
# Assay in all cases: relative viability (nuclei count vs DMSO), 5 days (fraction); higher = more cells survive
# Dinaciclib + Trametinib = compound: CCc1cnn2c(NCc3ccc[n+]([O-])c3)cc(N3CCCC[C@H]3CCO)nc12 [Dinaciclib] + CC(=O)Nc1cccc(-n2c(=O)n(C3CC3)c(=O)c3c(Nc4ccc(I)cc4F)n(C)c(=O)c(C)c32)c1 [Trametinib] (partner 0.02 µM)
# Method in brief: (§1)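 Relative viability divides the nuclei count in treated wells by that in vehicle wells. Lung cancer cell lines were seeded in 1536-well plates, dosed by pin tool the next day, and fixed and stained after 5 days in one step with final 0.05% Triton X-100, 1% formaldehyde and 1 ug/ml Hoechst. Dosing was a single drug or a fixed anchor-drug dose plus five library-drug doses (not always all listed) in √10 steps, and values are medians of duplicate plates imaged at 4×.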
# Dinaciclib + Linsitinib = compound: CCc1cnn2c(NCc3ccc[n+]([O-])c3)cc(N3CCCC[C@H]3CCO)nc12 [Dinaciclib] + C[C@]1(O)C[C@@H](c2nc(-c3ccc4ccc(-c5ccccc5)nc4c3)c3c(N)nccn32)C1 [Linsitinib] (partner 1 µM)
# Method in brief: as §1
# Dinaciclib + Pemetrexed = compound: CCc1cnn2c(NCc3ccc[n+]([O-])c3)cc(N3CCCC[C@H]3CCO)nc12 [Dinaciclib] + Nc1nc2[nH]cc(CCc3ccc(C(=O)N[C@@H](CCC(=O)O)C(=O)O)cc3)c2c(=O)[nH]1 [Pemetrexed] (partner 0.2 µM)
# Method in brief: as §1
# Dinaciclib + Crizotinib = compound: CCc1cnn2c(NCc3ccc[n+]([O-])c3)cc(N3CCCC[C@H]3CCO)nc12 [Dinaciclib] + C[C@@H](Oc1cc(-c2cnn(C3CCNCC3)c2)cnc1N)c1c(Cl)ccc(F)c1Cl [Crizotinib] (partner 1 µM)
# Method in brief: as §1
# Dinaciclib + Olaparib = compound: CCc1cnn2c(NCc3ccc[n+]([O-])c3)cc(N3CCCC[C@H]3CCO)nc12 [Dinaciclib] + O=C(c1cc(Cc2n[nH]c(=O)c3ccccc23)ccc1F)N1CCN(C(=O)C2CC2)CC1 [Olaparib] (partner 8 µM)
# Method in brief: as §1
Cell Line,relative viability (Dinaciclib + Trametinib; first compound 0.009487 µM),relative viability (Dinaciclib + Trametinib; first compound 0.03 µM),relative viability (Dinaciclib + Trametinib; first compound 0.09487 µM),relative viability (Dinaciclib + Trametinib; first compound 0.3 µM),relative viability (Dinaciclib + Linsitinib; first compound 0.009487 µM),relative viability (Dinaciclib + Linsitinib; first compound 0.03 µM),relative viability (Dinaciclib + Linsitinib; first compound 0.09487 µM),relative viability (Dinaciclib + Linsitinib; first compound 0.3 µM),relative viability (Dinaciclib + Pemetrexed; first compound 0.009487 µM),relative viability (Dinaciclib + Pemetrexed; first compound 0.03 µM),relative viability (Dinaciclib + Pemetrexed; first compound 0.09487 µM),relative viability (Dinaciclib + Pemetrexed; first compound 0.3 µM),relative viability (Dinaciclib + Crizotinib; first compound 0.009487 µM),relative viability (Dinaciclib + Crizotinib; first compound 0.03 µM),relative viability (Dinaciclib + Crizotinib; first compound 0.09487 µM),relative viability (Dinaciclib + Crizotinib; first compound 0.3 µM),relative viability (Dinaciclib + Olaparib; first compound 0.009487 µM),relative viability (Dinaciclib + Olaparib; first compound 0.03 µM),relative viability (Dinaciclib + Olaparib; first compound 0.09487 µM),relative viability (Dinaciclib + Olaparib; first compound 0.3 µM)
201T,0.821,0.675,0.249,0.228,1.11,1,0.362,0.368,0.317,0.311,0.206,0.187,0.938,0.739,0.265,0.313,0.991,0.34,0.225,0.223
A-427,0.624,0.117,0.109,0.115,1.09,0.512,0.0865,0.0756,0.883,0.156,0.101,0.112,0.72,0.12,0.057,0.0481,0.459,0.104,0.0978,0.101
ABC-1,–,–,–,–,0.665,0.278,0.166,0.126,–,–,–,–,1.16,0.178,0.11,0.0832,0.807,0.316,0.272,0.252
BEN,1.44,0.981,0.349,0.291,1.01,0.68,0.216,0.21,1.07,0.501,0.23,0.274,1,0.512,0.18,0.215,0.956,0.457,0.258,0.26
CAL-12T,0.187,0.0992,0.122,0.11,0.452,0.175,0.112,0.145,0.771,0.141,0.133,0.13,0.503,0.0856,0.0861,0.103,0.589,0.134,0.13,0.141
COR-L23,0.508,0.111,0.0846,0.0705,0.736,0.0901,0.0662,0.0681,0.184,0.21,0.112,0.093,0.456,0.0842,0.0684,0.0575,0.356,0.112,0.0765,0.0765
COR-L 105,0.41,0.327,0.35,0.329,0.55,0.239,0.245,0.249,0.91,0.291,0.348,0.295,0.923,0.192,0.171,0.189,0.957,0.391,0.312,0.269
ChaGo-K-1,0.856,0.25,0.14,0.102,–,–,–,–,0.257,0.216,0.149,0.119,0.699,0.229,0.224,0.214,0.371,0.145,0.0867,0.0975
EKVX,0.333,0.219,0.11,0.108,0.961,0.51,0.0946,0.137,0.35,0.267,0.122,0.123,0.749,0.454,0.103,0.118,0.721,0.346,0.123,0.139
EMC-BAC-2,0.842,0.21,0.219,0.22,0.868,0.235,0.14,0.161,0.451,0.381,0.288,0.259,0.71,0.187,0.146,0.15,0.485,0.238,0.187,0.176
EPLC-272H,0.223,0.0654,0.0408,0.056,1.29,0.665,0.33,0.0559,0.189,0.0576,0.0509,0.0711,0.853,0.484,0.0554,0.0387,0.274,0.0455,0.0344,0.036
H3255,0.629,0.27,0.194,0.201,1.09,0.493,0.177,0.186,0.633,0.423,0.227,0.213,0.842,0.194,0.173,0.197,0.536,0.253,0.2,0.19
HARA,0.519,0.213,0.114,0.111,0.758,0.0716,0.0363,0.038,0.24,0.172,0.122,0.0976,0.717,0.103,0.0536,0.0685,0.366,0.0835,0.0659,0.14
HCC-15,0.329,0.248,0.116,0.112,0.76,0.171,0.113,0.101,0.217,0.122,0.128,0.125,0.618,0.098,0.0953,0.0947,0.494,0.199,0.106,0.119
HCC-44,1.13,0.846,0.343,0.339,0.461,0.119,0.122,0.103,0.665,0.695,0.388,0.351,0.741,0.133,0.118,0.112,1.07,0.556,0.361,0.272
HCC-78,0.631,0.402,0.229,0.183,0.556,0.348,0.116,0.14,0.895,0.91,0.858,0.927,0.352,0.181,0.108,0.137,0.713,0.198,0.168,0.202
HCC-366,0.274,0.0898,0.0214,0.0233,0.543,0.0298,0.0149,0.0167,0.171,0.0414,0.0345,0.0329,0.358,0.0242,0.0111,0.0131,0.174,0.032,0.0277,0.0241

Cell Line,relative viability (Dinaciclib + Trametinib; first compound 0.009487 µM),relative viability (Dinaciclib + Trametinib; first compound 0.03 µM),relative viability (Dinaciclib + Trametinib; first compound 0.09487 µM),relative viability (Dinaciclib + Trametinib; first compound 0.3 µM),relative viability (Dinaciclib + Linsitinib; first compound 0.009487 µM),relative viability (Dinaciclib + Linsitinib; first compound 0.03 µM),relative viability (Dinaciclib + Linsitinib; first compound 0.09487 µM),relative viability (Dinaciclib + Linsitinib; first compound 0.3 µM),relative viability (Dinaciclib + Pemetrexed; first compound 0.009487 µM),relative viability (Dinaciclib + Pemetrexed; first compound 0.03 µM),relative viability (Dinaciclib + Pemetrexed; first compound 0.09487 µM),relative viability (Dinaciclib + Pemetrexed; first compound 0.3 µM),relative viability (Dinaciclib + Crizotinib; first compound 0.009487 µM),relative viability (Dinaciclib + Crizotinib; first compound 0.03 µM),relative viability (Dinaciclib + Crizotinib; first compound 0.09487 µM),relative viability (Dinaciclib + Crizotinib; first compound 0.3 µM),relative viability (Dinaciclib + Olaparib; first compound 0.009487 µM),relative viability (Dinaciclib + Olaparib; first compound 0.03 µM),relative viability (Dinaciclib + Olaparib; first compound 0.09487 µM),relative viability (Dinaciclib + Olaparib; first compound 0.3 µM)
HCC-827,0.511,0.186,0.12,0.135,0.951,0.747,0.181,0.147,0.27,0.129,0.122,0.13,0.946,0.333,0.16,0.15,0.631,0.123,0.116,0.117
HOP-62,0.492,0.361,0.0804,0.0808,1.01,0.203,0.0716,0.0565,0.255,0.0991,0.094,0.0662,0.841,0.236,0.0602,0.0489,0.295,0.0722,0.0964,0.0667
IA-LM,–,–,–,–,0.664,0.27,0.028,0.0252,–,–,–,–,0.725,0.0572,0.0441,0.0336,0.88,0.0461,0.0398,0.0287
LC-2-ad,0.921,0.405,0.148,0.15,0.745,0.0866,0.0684,0.0797,0.28,0.158,0.14,0.131,0.441,0.119,0.109,0.116,0.495,0.162,0.13,0.133
LCLC-97TM1,0.216,0.0795,0.0706,0.0687,0.168,0.12,0.126,0.107,0.152,0.0671,0.0619,0.062,0.346,0.092,0.0991,0.103,0.322,0.0664,0.0584,0.0621
LCLC-103H,0.674,0.659,0.255,0.249,1.13,0.934,0.18,0.172,0.465,0.566,0.223,0.217,1.06,1.03,0.329,0.123,0.775,0.361,0.227,0.198
LK-2,0.574,0.152,0.133,0.125,0.523,0.127,0.159,0.117,0.38,0.0867,0.0811,0.0749,0.232,0.202,0.21,0.18,0.615,0.0883,0.0805,0.0778
LOU-NH91,0.756,0.405,0.281,0.264,0.94,0.467,0.236,0.245,0.443,0.276,0.256,0.234,0.738,0.348,0.29,0.267,0.861,0.269,0.239,0.234
LU99A,0.511,0.14,0.127,0.146,0.336,0.154,0.145,0.141,0.205,0.16,0.132,0.137,0.315,0.131,0.125,0.122,0.199,0.112,0.117,0.125
NCI-H522,0.757,0.795,0.255,0.251,–,–,–,–,1.32,1.14,0.371,0.25,–,–,–,–,0.573,0.469,0.339,0.204
NCI-H727,0.39,0.324,0.324,0.392,0.268,0.193,0.0908,0.158,–,–,–,–,0.534,0.171,0.174,0.183,0.782,0.314,0.351,0.328
NCI-H1395,1.11,0.315,0.281,0.289,1.56,0.249,0.297,0.277,0.505,0.231,0.213,0.26,–,–,–,–,0.469,0.279,0.264,0.32
NCI-H1650,0.516,0.163,0.151,0.119,–,–,–,–,0.366,0.335,0.152,0.0974,0.97,0.121,0.0986,0.113,0.861,0.431,0.127,0.0993
NCI-H1703,–,–,–,–,0.767,0.25,0.0664,0.0983,–,–,–,–,0.61,0.229,0.0855,0.106,0.475,0.0997,0.0838,0.113
NCI-H1793,0.388,0.174,0.15,0.151,0.818,0.187,0.119,0.128,0.63,0.139,0.142,0.13,–,–,–,–,0.64,0.139,0.119,0.153
NCI-H2170,0.885,0.147,0.133,0.131,–,–,–,–,0.292,0.133,0.125,0.119,0.86,0.188,0.157,0.181,0.429,0.11,0.0975,0.113
SW 900,0.805,0.477,0.177,0.155,–,–,–,–,0.448,0.195,0.166,0.153,–,–,–,–,0.749,0.414,0.172,0.166
